Experimental data taken from US8178570B2, “Tie-2 modulators and methods of use” (Exelixis, Inc., priority 2003, dated 2012).

target: Tie-2 (Homo sapiens, UniProt Q02763); experiment: Tie-2 tyrosine kinase activity: kinase-dependent ATP consumption (pEY substrate, luciferase/luciferin chemiluminescence) or 33P-ATP incorporation into substrate; format: biochemical; conditions: Tie-2 (human enzyme) inhibition, Table 2, class symbols A-D
Protocol: One measure of inhibition is Ki. […] The Ki for a compound is determined from the IC50 based on three assumptions. First, only one compound molecule binds to the enzyme and there is no cooperativity. […] Third, the enzymatic rate of the enzyme-inhibitor complex is zero. The rate (i.e., compound concentration) data are fitted to the equation:
[formula] where V is the observed rate, Vmax, is the rate of the free enzyme, I0 is the inhibitor concentration, E0 is the enzyme concentration, and Kd is the dissociation constant of the enzyme-inhibitor complex.
Tyrosine kinase activity is determined by 1) measurement of kinase-dependent ATP consumption by in the presence of a generic substrate such as polyglutamine, tyrosine (pEY), by luciferase/luciferin-mediated chemiluminescence or; 2) incorporation of radioactive phosphate derived from ^33P-ATP into a generic substrate which has been absorbed onto the well surface of polystyrene microtiter plates. Phosphorylated substrate products are quantified by scintillation spectrometry.
Inhibition is indicated as IC50 with following key: A=IC50 less than 50 nM, B=IC50 greater than 50 nM, but less than or equal to 1000 nM, C=IC50 greater than 1000 nM, but less than 10,000 nM, and D=IC50 10,000 nM or greater. The abbreviation for human enzyme, Tie-2, is defined as tyrosine kinase with immunoglobulin and EGF repeats.

Sequence of Tie-2 (Q02763 23-1124): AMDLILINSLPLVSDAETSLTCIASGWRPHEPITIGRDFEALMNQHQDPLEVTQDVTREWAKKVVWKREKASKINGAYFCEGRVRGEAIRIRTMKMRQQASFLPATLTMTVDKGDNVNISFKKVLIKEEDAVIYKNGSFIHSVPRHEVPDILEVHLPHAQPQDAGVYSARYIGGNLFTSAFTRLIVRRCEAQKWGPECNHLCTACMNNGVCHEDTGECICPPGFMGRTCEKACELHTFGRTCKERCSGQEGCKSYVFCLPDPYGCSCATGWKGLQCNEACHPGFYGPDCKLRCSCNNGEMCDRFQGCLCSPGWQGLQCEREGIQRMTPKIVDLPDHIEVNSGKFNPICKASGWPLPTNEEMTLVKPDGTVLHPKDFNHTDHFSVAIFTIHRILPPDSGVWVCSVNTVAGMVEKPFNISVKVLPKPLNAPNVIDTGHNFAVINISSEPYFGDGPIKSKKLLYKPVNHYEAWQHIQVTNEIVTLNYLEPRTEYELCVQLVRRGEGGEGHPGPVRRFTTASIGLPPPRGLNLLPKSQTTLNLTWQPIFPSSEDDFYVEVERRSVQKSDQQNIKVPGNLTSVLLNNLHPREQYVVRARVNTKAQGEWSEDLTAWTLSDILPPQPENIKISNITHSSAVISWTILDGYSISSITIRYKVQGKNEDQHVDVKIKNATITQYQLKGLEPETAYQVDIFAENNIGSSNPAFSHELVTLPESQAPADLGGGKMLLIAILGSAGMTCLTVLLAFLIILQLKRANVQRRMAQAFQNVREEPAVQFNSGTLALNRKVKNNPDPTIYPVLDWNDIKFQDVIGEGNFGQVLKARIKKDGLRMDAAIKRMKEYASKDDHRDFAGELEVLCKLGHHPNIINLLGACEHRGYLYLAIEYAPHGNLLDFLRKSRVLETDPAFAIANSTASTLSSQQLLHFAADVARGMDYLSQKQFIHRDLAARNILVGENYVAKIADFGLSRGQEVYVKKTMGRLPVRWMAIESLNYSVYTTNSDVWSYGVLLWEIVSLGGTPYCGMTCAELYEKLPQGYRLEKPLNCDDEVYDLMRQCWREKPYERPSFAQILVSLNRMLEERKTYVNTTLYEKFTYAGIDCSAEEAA

SMILES | IC50 [µM]
O=C(Cc1cccc2ccccc12)N(CCn1nc(-c2ccncc2)nc1-c1ccc(O)c(Cl)c1)C1CCCC1 [Entry 1, N-{2-[5-(3-chloro-4-hydroxyphenyl)-3-pyridin-4-yl-1H-1,2,4-triazol-1-yl]ethyl}-N-cyclopentyl-2-naphthalen-1-ylacetamide] | < 0.05
CCOC(=O)Cn1nc(-c2ccncc2)nc1-c1ccc(OC)c(Cl)c1 [Entry 2, ethyl {5-[3-chloro-4-(methyloxy)phenyl]-3-pyridin-4-yl-1H-1,2,4-triazol-1-yl}acetate] | ≥ 10
COc1ccc(-c2nc(-c3ccncc3)nn2CC(=O)NC2CCCC2)cc1Cl [Entry 3, 2-{5-[3-chloro-4-(methyloxy)phenyl]-3-pyridin-4-yl-1H-1,2,4-triazol-1-yl}-N-cyclopentylacetamide] | ≥ 10
CCOC(=O)Cn1nc(-c2ccc(OC)c(Cl)c2)nc1-c1ccncc1 [Entry 4, ethyl {3-[3-chloro-4-(methyloxy)phenyl]-5-pyridin-4-yl-1H-1,2,4-triazol-1-yl}acetate] | ≥ 10
COc1ccc(-c2nc(-c3ccncc3)n(CC(=O)NC3CCCC3)n2)cc1Cl [Entry 5, 2-{3-[3-chloro-4-(methyloxy)phenyl]-5-pyridin-4-yl-1H-1,2,4-triazol-1-yl}-N-cyclopentylacetamide] | ≥ 10
COC(=O)CCn1nc(-c2ccncc2)nc1-c1ccc(OC)c(Cl)c1 [Entry 6, methyl 3-{5-[3-chloro-4-(methyloxy)phenyl]-3-pyridin-4-yl-1H-1,2,4-triazol-1-yl}propanoate] | ≥ 10
COC(=O)CCn1nc(-c2ccc(OC)c(Cl)c2)nc1-c1ccncc1 [Entry 7, methyl 3-{3-[3-chloro-4-(methyloxy)phenyl]-5-pyridin-4-yl-1H-1,2,4-triazol-1-yl}propanoate] | ≥ 10
COc1ccc(-c2nc(-c3ccncc3)nn2CCCN(C(=O)Cc2cccc3ccccc23)C2CCCC2)cc1Cl [Entry 8, N-(3-{5-[3-chloro-4-(methyloxy)phenyl]-3-pyridin-4-yl-1H-1,2,4-triazol-1-yl}propyl)-N-cyclopentyl-2-naphthalen-1-ylacetamide] | ≥ 10
COc1ccc(-c2nc(-c3ccncc3)n(CCCN(C(=O)Cc3cccc4ccccc34)C3CCCC3)n2)cc1Cl [Entry 9, N-(3-{3-[3-chloro-4-(methyloxy)phenyl]-5-pyridin-4-yl-1H-1,2,4-triazol-1-yl}propyl)-N-cyclopentyl-2-naphthalen-1-ylacetamide] | ≥ 10
COc1ccc(-c2nc(-c3ccncc3)nn2CCN(C(=O)Cc2cccc3ccccc23)C2CCCC2)cc1Cl [Entry 10, N-(2-{5-[3-chloro-4-(methyloxy)phenyl]-3-pyridin-4-yl-1H-1,2,4-triazol-1-yl}ethyl)-N-cyclopentyl-2-naphthalen-1-ylacetamide] | < 0.05
O=C(Cc1cccc2ccccc12)N(CCn1nc(-c2ccc(O)c(Cl)c2)nc1-c1ccncc1)C1CCCC1 [Entry 11, N-{2-[3-(3-chloro-4-hydroxyphenyl)-5-pyridin-4-yl-1H-1,2,4-triazol-1-yl]ethyl}-N-cyclopentyl-2-naphthalen-1-ylacetamide] | 0.05 to 1
COc1ccc(-c2nc(-c3cccnc3)n(CC(=O)NC3CCCC3)n2)cc1Cl [Entry 12, 2-{3-[3-chloro-4-(methyloxy)phenyl]-5-pyridin-3-yl-1H-1,2,4-triazol-1-yl}-N-cyclopentylacetamide] | ≥ 10
COc1ccc(-c2nc(-c3cccnc3)nn2CCN(C(=O)Cc2cccc3ccccc23)C2CCCC2)cc1Cl [Entry 13, N-(2-{5-[3-chloro-4-(methyloxy)phenyl]-3-pyridin-3-yl-1H-1,2,4-triazol-1-yl}ethyl)-N-cyclopentyl-2-naphthalen-1-ylacetamide] | ≥ 10
CCOC(=O)Cn1nc(-c2ccncc2)nc1-c1ccc([N+](=O)[O-])cc1 [Entry 14, ethyl [5-(4-nitrophenyl)-3-pyridin-4-yl-1H-1,2,4-triazol-1-yl]acetate] | ≥ 10
